# Results taken from patent US20020151583A1, “Prevention of liver cancer by administration of simvastatin” (priority 2001, published 2002).
# Legend:
# alphafetoprotein = experiment: Clinical case reports: monitoring of serum alphafetoprotein level under daily oral simvastatin; format: in vivo, patients
# Protocol: (§1) In order to avoid unforeseen side effects, the treatment was initiated at a 20 mg dose once daily for one week. The dose was then increased to 40 mg daily during the following week, and was again increased to 60 mg daily during the third week. During the fourth week, the dose was increased to 80 mg daily (two tablets of 40 mg each) and remained the same thereafter. Following the administration of simvastatin as described above, the patients' alphafetoprotein levels were monitored on a monthly basis until values reached normal levels and then every three months thereafter in association with liver function tests and coagulation studies as part of a follow-up. In addition, an abdominal ultrasound test was performed every four months in an attempt to identify any new liver masses, and MRI (magnetic resonance imaging) studies of the liver were performed.
# liver cancer = experiment: Clinical case reports: imaging studies of the liver (abdominal ultrasound, MRI) for new liver masses; format: in vivo, patients
# Protocol: as §1
compound,measurement,setting,value
"CCC(C)(C)C(=O)OC1C[C@@H](C)C=C2C=C[C@H](C)[C@H](CC[C@@H]3C[C@@H](O)CC(=O)O3)[C@H]21 (relative stereo) [simvastatin, butanoic acid, 2,2-dimethyl-,1,2,3,7,8,8a-hexahydro-3,7-dimethyl-8-[2-(tetrahydro-4-hydroxy-6-oxo-2H-pyran-2-yl)-ethyl]-1-naphthalenyl ester, [1S-[1α,3α,7β,8β(2S*,4S*),-8aβ]]]",time until alphafetoprotein level normalized,"alphafetoprotein; Case No. 1: Hepatitis B, rapidly increasing alphafetoprotein, progressively increased dosages of simvastatin",four
same,alphafetoprotein level after patient stopped taking simvastatin,alphafetoprotein; Case No. 1: after stopping simvastatin,33
same,alphafetoprotein level after simvastatin was re-introduced,alphafetoprotein; Case No. 1: re-introduced at progressively increased dosages,normalized and has remained normalized
same,alphafetoprotein level on maintenance dosages of simvastatin,alphafetoprotein; Case No. 2,remained normalized
same,time until alphafetoprotein level normalized,"alphafetoprotein; Case No. 2: Hepatitis B, progressively increasing alphafetoprotein, increasing doses of simvastatin",≤ 5 months
same,alphafetoprotein level after normalization,alphafetoprotein; Case No. 3,remained normalized
same,time until alphafetoprotein level normalized,"alphafetoprotein; Case No. 3: Hepatitis C, alphafetoprotein above 50 before treatment, protocol administration",≤ 2 months
same,elevation of alphafetoprotein during observation period,"alphafetoprotein; Case No. 4: patients with Hepatitis B and C or other liver cirrhosis, normal alphafetoprotein, simvastatin daily since diagnosis",None of these patients showed an elevation of alphafetoprotein
same,course of alphafetoprotein level,alphafetoprotein; patients with an elevated alphafetoprotein level (above 10 ng/mL) who underwent treatment,progressively decline over several weeks to several months to normal values
same,liver tumor mass in repeated imaging studies,liver cancer; Case No. 1,never showed any liver tumor mass
same,liver tumor mass in repeated imaging studies,liver cancer; Case No. 2,never showed any liver tumor mass
same,liver tumor mass in repeated imaging studies,liver cancer; Case No. 3,never showed any liver tumor mass
same,subsequent development of liver cancer,liver cancer; patients with an elevated alphafetoprotein level who underwent treatment,None of the patients subsequently developed liver cancer
same,malignancy detected by careful imaging studies,"liver cancer; patients with known liver diseases at high risk, liver diseases continued to progress",no malignancy was ever detected
